Experimental data: US12692254B2, “Benzimidazole inhibitors of PAD enzymes” (BRISTOL-MYERS SQUIBB COMPANY, priority 2018, dated 2026)

The compounds below were run against human PAD4 (hPAD4) (Homo sapiens, UniProt Q9UM07) (assay: RFMS human PAD4 functional assay (rapid-fire mass spectrum)). Settings: 5 nM hPAD4 enzyme, 250 μM BAEE, 50 μM Calcium; 30 min preincubation, 90 min reaction at 37° C.
Format: biochemical
How it was run: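 PAD4 (10 nM) preincubated 30 min with compound (top final 50 μM), then BAEE substrate added in pH 7.5 HEPES buffer with DTT, 50 μM calcium, TPEN; 90 min at 37° C. After TCA quench, citrulline derivatized with phenyl glyoxal (4 mM final, 30 min, 37° C) and quantified by RapidFire MS against internal standard.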

Chain of human PAD4 (hPAD4) (Q9UM07 whole entry): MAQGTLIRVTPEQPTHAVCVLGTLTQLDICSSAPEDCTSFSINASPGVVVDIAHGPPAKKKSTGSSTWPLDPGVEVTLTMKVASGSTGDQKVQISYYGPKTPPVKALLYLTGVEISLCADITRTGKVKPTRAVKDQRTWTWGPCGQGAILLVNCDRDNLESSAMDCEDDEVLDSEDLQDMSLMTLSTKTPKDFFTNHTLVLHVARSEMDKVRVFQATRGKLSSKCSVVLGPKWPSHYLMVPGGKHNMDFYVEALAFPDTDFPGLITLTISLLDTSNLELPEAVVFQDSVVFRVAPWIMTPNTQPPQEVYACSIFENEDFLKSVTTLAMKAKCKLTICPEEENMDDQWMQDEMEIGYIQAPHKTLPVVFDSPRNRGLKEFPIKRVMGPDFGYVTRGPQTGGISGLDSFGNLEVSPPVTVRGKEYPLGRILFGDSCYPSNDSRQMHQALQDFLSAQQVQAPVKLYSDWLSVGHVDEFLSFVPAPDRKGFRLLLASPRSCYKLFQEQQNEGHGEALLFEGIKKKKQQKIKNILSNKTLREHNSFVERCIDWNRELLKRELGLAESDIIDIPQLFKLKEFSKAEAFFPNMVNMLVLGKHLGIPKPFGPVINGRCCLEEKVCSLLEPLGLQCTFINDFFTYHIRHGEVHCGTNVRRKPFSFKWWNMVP

| Compound | IC50 |
| --- | --- |
| CCc1ccccc1-c1nc2cc(C(=O)N3C[C@H]4CC[C@@H]3[C@@H]4N)cc(OC)c2n1CC1CN(c2ccnc(C#N)n2)C1 [Example 319, 4-[3-({5-[(1R,4R,7R)-7-amino-2-azabicyclo[2.2.1]heptane-2-carbonyl]-2-(2-ethylphenyl)-7-methoxy-1H-1,3-benzodiazol-1-yl}methyl)azetidin-1-yl]pyrimidine-2-carbonitrile] | 1300 nM |
| COc1cc(C(=O)N2C[C@H]3CC[C@@H]2[C@@H]3N)cc2nc(-c3cc4cccnc4n3CC3CC3)n(CC3CN(c4cccnc4C#N)C3)c12 [Example 36, 3-[3-({5-[(1R,4R,7R)-7-amino-2-azabicyclo[2.2.1]heptane-2-carbonyl]-2-[1-(cyclopropylmethyl)-1H-pyrrolo[2,3-b]pyridin-2-yl]-7-methoxy-1H-1,3-benzodiazol-1-yl}methyl)azetidin-1-yl]pyridine-2-carbonitrile] | 92 nM |
| COc1cc(C(=O)N2CC(CN)C2)cc2nc(-c3cc4ccccc4n3CC3CC3)n(Cc3cnn(C)c3)c12 [Example 291, (1-{2-[1-(cyclopropylmethyl)-1H-indol-2-yl]-7-methoxy-1-[(1-methyl-1H-pyrazol-4-yl)methyl]-1H-1,3-benzodiazole-5-carbonyl}azetidin-3 yl)methanamine] | 1910 nM |
| COc1cc(C(=O)N2C[C@H]3CC[C@@H]2[C@@H]3N)cc2nc(-c3csc4ccc(Cl)cc34)n(CC3CN(c4ccnc(C)n4)C3)c12 [Example 324, (1R,4R,7R)-2-[2-(5-chloro-1-benzothiophen-3-yl)-7-methoxy-1-{[1-(2-methylpyrimidin-4-yl)azetidin-3-yl]methyl}-1H-1,3-benzodiazole-5-carbonyl]-2-azabicyclo[2.2.1]heptan-7-amine] | 1880 nM |

The next compounds have a lower IC50 than those just listed; values first:

| IC50 | Compound |
| --- | --- |
| 69 nM | COc1cc(C(=O)N2C[C@H](N)C[C@@H](F)C2)cc2nc(-c3cc4cccnc4n3CC3CC3)n(Cc3cnn(-c4cncc(F)c4)c3)c12 [Example 406, (3R,5R)-1-{2-[1-(cyclopropylmethyl)-1H-pyrrolo[2,3-b]pyridin-2-yl]-1-{[1-(5-fluoropyridin-3-yl)-1H-pyrazol-4-yl]methyl}-7-methoxy-1H-1,3-benzodiazole-5-carbonyl}-5-fluoropiperidin-3-amine] |
| 54 nM | COc1ccc2cc(-c3nc4cc(C(=O)N5C[C@H]6CC[C@@H]5[C@@H]6N)cc(OC)c4n3CC3CN(C(=O)c4cnc(C#N)nc4)C3)n(CC3CC3)c2n1 [Example 177, 5-[3-({5-[(1R,4R,7R)-7-amino-2-azabicyclo[2.2.1]heptane-2-carbonyl]-2-[1-(cyclopropylmethyl)-6-methoxy-1H-pyrrolo[2,3-b]pyridin-2-yl]-7-methoxy-1H-1,3-benzodiazol-1-yl}methyl)azetidine-1-carbonyl]pyrimidine-2-carbonitrile] |
| 34 nM | COc1cc(C(=O)N2CC3CCC2[C@@H]3N)cc2nc(-c3cc4ccccc4n3CC3CC3)n(CC3CN(C(=O)c4ccncn4)C3)c12 (stereo partly drawn) [Example 437, (7R)-2-{2-[1-(cyclopropylmethyl)-1H-indol-2-yl]-7-methoxy-1-{[1-(pyrimidine-4-carbonyl)azetidin-3-yl]methyl}-1H-1,3-benzodiazole-5-carbonyl}-2-azabicyclo[2.2.1]heptan-7-amine] |
| 33 nM | COc1cc(C(=O)N2C[C@H]3CC[C@@H]2[C@@H]3N)cc2nc(-c3cc4cccnc4n3CC3CC3)n(Cc3cnn(C)c3)c12 [Example 243, (1R,4R,7R)-2-{2-[1-(cyclopropylmethyl)-1H-pyrrolo[2,3-b]pyridin-2-yl]-7-methoxy-1-[(1-methyl-1H-pyrazol-4-yl)methyl]-1H-1,3-benzodiazole-5-carbonyl}-2-azabicyclo[2.2.1]heptan-7-amine] |
| 18 nM | COc1cc(C(=O)N2CC3CCC2[C@@H]3N)cc2nc(-c3cc4ccccc4n3CC3CC3)n(C[C@H]3CCN(c4ccnc(C#N)n4)C3)c12 (stereo partly drawn) [Example 223, 4-[(3S)-3-({5-[(1R,4R,7R)-7-amino-2-azabicyclo[2.2.1]heptane-2-carbonyl]-2-[1-(cyc1opropylmethyl)-1H-indo1-2-yl]-7-methoxy-1H-1,3-benzodiazo1-1-yl}methyl)pyrrolidin-1-yl]pyrimidine-2-carbonitrile] |
